Experimental data published in patent US20050245399A1, “Pyrazole derivatives as herbicidal compositions containing them” (ISHIHARA SANGYO KAISHA, LTD., priority 2004, published 2005).

Assays:
Format in all cases: in vivo
[1] = system: rice (Oryza sativa L.: ORYSA); experiment: Test Example 3 water application herbicidal activity (paddy), transplanted rice ORYSA; settings: 63 g a.i./ha, water application 4th day after transplantation of 2 leaf stage rice, visually observed 21st day after application; 0 = untreated control, 100 = complete kill
Summary of the method: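 Flooded paddy-soil pots in greenhouse; ECHOR and SCPJO sown, SAGPY tubers planted a day later, compound applied into 3–4 cm water at weeds' 0.5-leaf stage. Rice transplanted at 2-leaf stage, treated day 4 after transplanting. Visual growth control 0–100% at 14 days (weeds) and 21 days (rice) after application.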

[2] = system: soybean (Glycine max Merr.): GLXMA; experiment: Test Example 1 pre-emergence herbicidal activity, GLXMA; settings: Rate 63 g a.i./ha, visually observed 20th to 23rd day after application
Summary of the method: (§1)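 Seeds sown in upland field soil in pots; one day later compound, formulated as wettable powder or emulsifiable concentrate and diluted with water at 500 L/ha, sprayed pre-emergence at a predetermined active-ingredient rate. Growth control scored visually 20–23 days after application, 0 (untreated-like) to 100 (complete kill) %.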

[3] = system: wheat (Triticum aestivum L.), TRZAX; experiment: Test Example 2 post-emergence (foliage treatment) herbicidal activity, TRZAX
Summary of the method: (§2)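 A small sprayer delivered the diluted WP or EC formulation (500 L/ha water, 0.1% v/v spreader) over emerged seedlings in upland soil pots. Damage relative to untreated plants was graded visually from 0 to 100% three weeks or so later (days 20-23).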

[4] = system: rice (Oryza sativa L.): ORYSA; experiment: Test Example 1 pre-emergence herbicidal activity, ORYSA; settings: Rate 63 g a.i./ha, visually observed 20th to 23rd day after application
Summary of the method: as §1

[5] = system: wheat (Triticum aestivum L.): TRZAX; experiment: Test Example 1 pre-emergence herbicidal activity, TRZAX; settings: Rate 63 g a.i./ha, visually observed 20th to 23rd day after application
Summary of the method: as §1

[6] = system: corn (Zea mays L.): ZEAMX; experiment: Test Example 1 pre-emergence herbicidal activity, ZEAMX; settings: Rate 63 g a.i./ha, visually observed 20th to 23rd day after application
Summary of the method: as §1

[7] = system: japanese ribbon wapato (Sagittaria pygmaea: SA GPY); experiment: Test Example 3 water application herbicidal activity (paddy), SAGPY; settings: 63 g a.i./ha, water application under submerged condition, tubers planted, visually observed 14th day after application; 0 = untreated control, 100 = complete kill
Summary of the method: (§3)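 Submerged application in flooded paddy soil (3–4 cm water); weeds treated at 0.5-leaf stage, transplanted rice 4 d after transplanting. Scored visually as % growth control: weeds at 14 d, rice at 21 d.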

[8] = system: barnyardgrass (Echinochloa crus-galli L.), ECHCG; experiment: Test Example 2 post-emergence (foliage treatment) herbicidal activity, ECHCG
Summary of the method: (§4)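 Pot-grown plants in upland soil were sprayed over the foliage at ECHCG 1.1-2.1, DIGSA 1.0-2.0, AMARE 0.1-1.5 and ORYSA 1.0-2 leaf stage. Wettable powder or emulsifiable concentrate was diluted in water at 500 L/ha plus 0.1% (v/v) spreader. Growth control was scored visually 20-23 days later, 0 (untreated) to 100% (complete kill).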

[9] = system: soybean (Glycine max Merr.), GLXMA; experiment: Test Example 2 post-emergence (foliage treatment) herbicidal activity, GLXMA
Summary of the method: as §2

[10] = system: barnyardgrass (Echinochiloa oryzicola: ECHOR); experiment: Test Example 3 water application herbicidal activity (paddy), ECHOR; settings: 63 g a.i./ha, water application under submerged condition at 0.5 leaf stage, visually observed 14th day after application; 0 = untreated control, 100 = complete kill
Summary of the method: as §3

[11] = system: prickly sida (Sida spinosa L.): SEDSP; experiment: Test Example 1 pre-emergence herbicidal activity, SIDSP; settings: Rate 63 g a.i./ha, visually observed 20th to 23rd day after application
Summary of the method: as §1

[12] = system: redroot pigweed (Amaranthus retroflexus L.): AMARE; experiment: Test Example 1 pre-emergence herbicidal activity, AMARE; settings: Rate 63 g a.i./ha, visually observed 20th to 23rd day after application
Summary of the method: as §1

[13] = system: japanese bulrush (Scirpus juncoides: SCPJO); experiment: Test Example 3 water application herbicidal activity (paddy), SCPJO; settings: 63 g a.i./ha, water application under submerged condition at 0.5 leaf stage, visually observed 14th day after application; 0 = untreated control, 100 = complete kill
Summary of the method: as §3

[14] = system: crabgrass (Digitaria sanguinalis L.), DIGSA; experiment: Test Example 2 post-emergence (foliage treatment) herbicidal activity, DIGSA
Summary of the method: as §4

[15] = system: prickly sida (Sida spinosa L.), SIDSP; experiment: Test Example 2 post-emergence (foliage treatment) herbicidal activity, SIDSP
Summary of the method: as §2

[16] = system: green foxtail (Setaria viridis L.), SETVI; experiment: Test Example 2 post-emergence (foliage treatment) herbicidal activity, SETVI
Summary of the method: as §2

[17] = system: rice (Oryza sativa L.), ORYSA; experiment: Test Example 2 post-emergence (foliage treatment) herbicidal activity, ORYSA
Summary of the method: as §4

[18] = system: barnyardgrass (Echinochloa crus-galli L.): ECHCG; experiment: Test Example 1 pre-emergence herbicidal activity, ECHCG; settings: Rate 63 g a.i./ha, visually observed 20th to 23rd day after application
Summary of the method: as §1

[19] = system: corn (Zea mays L.), ZEAMX; experiment: Test Example 2 post-emergence (foliage treatment) herbicidal activity, ZEAMX
Summary of the method: as §2

[20] = system: velvetleaf (Abutilon theophrasti), ABUTH; experiment: Test Example 2 post-emergence (foliage treatment) herbicidal activity, ABUTH
Summary of the method: as §2

[21] = system: crabgrass (Digitaria sanguinalis L.): DIGSA; experiment: Test Example 1 pre-emergence herbicidal activity, DIGSA; settings: Rate 63 g a.i./ha, visually observed 20th to 23rd day after application
Summary of the method: as §1

[22] = system: green foxtail (Setaria viridis L.): SETVI; experiment: Test Example 1 pre-emergence herbicidal activity, SETVI; settings: Rate 63 g a.i./ha, visually observed 20th to 23rd day after application
Summary of the method: as §1

[23] = system: redroot pigweed (Amaranthus retroflexus L.), AMARE; experiment: Test Example 2 post-emergence (foliage treatment) herbicidal activity, AMARE
Summary of the method: as §4

[24] = system: velvetleaf (Abutilon theophrasti): ABUTH; experiment: Test Example 1 pre-emergence herbicidal activity, ABUTH; settings: Rate 63 g a.i./ha, visually observed 20th to 23rd day after application
Summary of the method: as §1

Structure (SMILES) | growth controlling degrees (%) ORYSA [1] [%] | Pre-emergence Herbicidal Activity GLXMA (growth controlling degree) [2] [%] | growth controlling degree, TRZAX ([3]; 63 g a.i./ha) [%] | Pre-emergence Herbicidal Activity ORYSA (growth controlling degree) [4] [%] | Pre-emergence Herbicidal Activity TRZAX (growth controlling degree) [5] [%] | Pre-emergence Herbicidal Activity ZEAMX (growth controlling degree) [6] [%] | growth controlling degrees (%) SAGPY [7] [%] | growth controlling degree, ECHCO ([8]; 63 g a.i./ha) [%] | growth controlling degree, GLXMA ([9]; 63 g a.i./ha) [%] | growth controlling degrees (%) ECHOR [10] [%] | Pre-emergence Herbicidal Activity SIDSP (growth controlling degree) [11] [%] | Pre-emergence Herbicidal Activity AMARE (growth controlling degree) [12] [%] | growth controlling degrees (%) SCPJO [13] [%] | growth controlling degree, DIGSP ([14]; 63 g a.i./ha) [%] | growth controlling degree, SIDSP ([15]; 63 g a.i./ha) [%] | growth controlling degree, SETVI ([16]; 63 g a.i./ha) [%] | Pre-emergence Herbicidal Activity ECHCG (growth controlling degree) [18] [%] | Pre-emergence Herbicidal Activity DIGSP (growth controlling degree) [21] [%] | Pre-emergence Herbicidal Activity SETVI (growth controlling degree) [22] [%] | Pre-emergence Herbicidal Activity ABUTH (growth controlling degree) [24] [%] | also measured
COc1c(Cl)cc(F)c(-c2nn(C)c(OC(F)F)c2Cl)c1NC(=O)COc1ccc(Cl)cc1 [Compound 1-35] | 30 | 0 | 40 | 40 | 20 | 0 | 60 | 80 | 80 | 100 | 20 | 100 | 70 | 70 | 100 | 95 | 20 | 50 | 80 | 20 | growth controlling degree, ORYSA ([17]; 63 g a.i./ha): 60%; growth controlling degree, ZEAMX ([19]; 63 g a.i./ha): 60%; growth controlling degree, ABUTH ([20]; 63 g a.i./ha): 100%; growth controlling degree, AMARE ([23]; 63 g a.i./ha): 100%
COc1c(Cl)cc(F)c(-c2nn(C)c(OC(F)F)c2Cl)c1N [Compound 1-90, 3-chloro-6-[4-chloro-5-(difluoromethoxy)-1-methyl-1H-pyrazol-3-yl]-5-fluoro-2-methoxybenzenamine] | 50 | 40 |  | 60 | 50 | 30 | 98 |  |  | 100 | 98 | 100 | 98 |  |  |  | 98 | 100 | 100 | 100 | growth controlling degree, TRZAX ([3]; 31 g a.i./ha): 95%; growth controlling degree, ECHCO ([8]; 31 g a.i./ha): 100%; growth controlling degree, GLXMA ([9]; 31 g a.i./ha): 98%; growth controlling degree, DIGSP ([14]; 31 g a.i./ha): 100%; growth controlling degree, SIDSP ([15]; 31 g a.i./ha): 100%; growth controlling degree, SETVI ([16]; 31 g a.i./ha): 100%; growth controlling degree, ORYSA ([17]; 31 g a.i./ha): 98%; growth controlling degree, ZEAMX ([19]; 31 g a.i./ha): 98%; growth controlling degree, ABUTH ([20]; 31 g a.i./ha): 100%; growth controlling degree, AMARE ([23]; 31 g a.i./ha): 100%
COc1c(Cl)cc(F)c(-c2nn(C)c(OC(F)F)c2Cl)c1NC(=O)/C=C/c1ccccc1 [Compound 1-31] | 40 | 10 | 20 | 50 | 10 | 10 | 95 | 80 | 60 | 100 | 100 | 100 | 60 | 80 | 100 | 95 | 80 | 100 | 100 | 100 | growth controlling degree, ORYSA ([17]; 63 g a.i./ha): 60%; growth controlling degree, ZEAMX ([19]; 63 g a.i./ha): 40%; growth controlling degree, ABUTH ([20]; 63 g a.i./ha): 100%; growth controlling degree, AMARE ([23]; 63 g a.i./ha): 100%
COc1ccc(C(=O)Nc2c(OC)c(Cl)cc(F)c2-c2nn(C)c(OC(F)F)c2Cl)cc1 [Compound 1-29] | 50 | 20 | 50 | 40 | 10 | 20 | 60 | 100 | 100 | 100 | 100 | 100 | 50 | 100 | 100 | 100 | 80 | 100 | 100 | 100 | growth controlling degree, ORYSA ([17]; 63 g a.i./ha): 80%; growth controlling degree, ZEAMX ([19]; 63 g a.i./ha): 60%; growth controlling degree, ABUTH ([20]; 63 g a.i./ha): 95%; growth controlling degree, AMARE ([23]; 63 g a.i./ha): 100%
COc1c(Cl)cc(F)c(-c2nn(C)c(OC(F)F)c2Cl)c1NC(=O)c1ccccc1Cl [Compound 1-23] | 40 | 30 | 40 | 40 | 40 | 0 | 98 | 98 | 98 | 100 | 100 | 100 | 80 | 90 | 100 | 100 | 80 | 100 | 95 | 90 | growth controlling degree, ORYSA ([17]; 63 g a.i./ha): 90%; growth controlling degree, ZEAMX ([19]; 63 g a.i./ha): 80%; growth controlling degree, ABUTH ([20]; 63 g a.i./ha): 100%; growth controlling degree, AMARE ([23]; 63 g a.i./ha): 100%
